Results published in patent US11117919B2, “Icariside compound, preparation method thereof, and application thereof” (FOSHAN GOLDEN HEALTH TECHNOLOGY CO., LTD., priority 2015, dated 2021).

Assays:
[1] = tested on: human peripheral blood mononuclear cells (PBMCs); assay: Immunological screening model: IFN-γ produced in human PBMCs; format: cell-based
Excerpt: The present inventors have long been researching the active components in traditional Chinese herbal medicine and their applications in immunotherapy. The present inventors have established an immunological test model based on determination of the level of IFN-γ produced in human peripheral blood mononuclear cells (PBMCs). By this model, compounds having promotion (or inhibition) effects on human peripheral blood mononuclear cells (PBMCs) to produce γ-interferon can be screened out from chemical components from various sources including traditional Chinese herbal medicine, medicinal plants and so on. Since the γ-Interferon is an important protein (cytokine) in human body's immune system to resist attacks from diseases, its production level in body directly relates to the body's immunity. Therefore, the model is an ideal tool to screen and find functional pharmaceuticals for improving human immunity.
In addition, all the results and achievements of the present invention are based on the very effective screening model established by the present inventors. Therefore, a further objective of the present invention is to provide an experimental model for screening substances having impacts (either enhance or inhibit) on immunity. […] Finally, by using ELISA techniques, the levels of IFN-γ produced in the culture were measured at different incubation time. […]

xenograft tumor = assay: Xenograft tumor growth in nude mice; format: in vivo, BALB/c (nu/nu) female nude mice; conditions: intraperitoneal 0.02 and 0.1 mg/10 g every 2 days, 30-day period
Experimental: The test used 4-6 weeks old BALB/c (nu/nu) female nude mice weighed 18-22 g fed in a SPF clean room with free access to food and water. […] When the tumor grew to the initial volume for administration with a pharmaceutical (100 mm^3), these mice were divided into groups with 10 mice for each group. For each group, nude mice were injected intraperitoneally: (1) the blank control group was injected with 0.1 ml/10 g solvent (5% DMSO+95% physiological saline); […] The administration was conducted every 2 days in a 30-day period. Vernier caliper was used to measure the largest longitudinal diameter (L) and transverse diameter (S) of tumor every two days. The approximate volume of the tumor was calculated with the equation of V (cm^3)=0.5×L× S^2 to plot a tumor growth curve. After the pharmaceutical treatment, the tumor was stripped and weighed for record.

[2] = tested on: S180 ascites tumor of mice; assay: Inhibition of S180 tumor growth in mice; conditions: for change of body weight (g) / tumor inhibition rate (%) with physiological saline group as control / tumor inhibition rate (%) with solvent group as control / weight of tumor (x ± SD, g): 10 days
Experimental: NIH mice used for the tests were about 18-22 grams and divided into 10 mice per group. The liquid (0.2 ml) of S180 ascites tumor of mice was inoculated subcutaneously into the armpit region of mice. The next day after the inoculation, each group of mice were injected intraperitoneally: (1) physiological saline group; (2) solvent control group (DMSO); (3) positive control group [cyclophosphamide 60 mg/(kg·d)]; (4) low-dose group 1: icariside I 2 mg/(kg·d); (5) low-dose group 2: icariside I 5 mg/(kg·d); (6) middle-dose group: icariside I 10 mg/(kg·d); (7) high-dose group: icariside I 20 mg/(kg·d). After administration for 10 continuous days, the administration was stopped and on the next day, the mice were weighed and sacrificed with tumor mass stripped and weighed. The physiological saline group and solvent group were used as a control for calculation of tumor inhibition rate.

SMILES: COc1ccc(-c2oc3c(CC=C(C)C)c(O[C@@H]4O[C@H](CO)[C@@H](O)[C@H](O)[C@H]4O)cc(O)c3c(=O)c2O)cc1 [icariside I]
- effect in promoting PBMCs to generate IFN-γ [1]: significant effect
- growth and development of the transplanted tumor mass in nude mice (xenograft tumor): significantly inhibit
- tumorigenesis and tumor progression in mice ([2]; S180, intraperitoneal, 10 continuous days, 2-20 mg/(kg·d)): significantly inhibit
- change of body weight (g) ([2]; high dose 20 mg/Kg i.p.): +9.0 g
- tumor inhibition rate (%) with physiological saline group as control ([2]; high dose 20 mg/Kg i.p.): 67.3%
- tumor inhibition rate (%) with solvent group as control ([2]; high dose 20 mg/Kg i.p.): 74.6%
- weight of tumor (x ± SD, g) ([2]; high dose 20 mg/Kg i.p.): 0.34 ± 0.12 g
- change of body weight (g) ([2]; low dose 2 mg/Kg i.p.): +11.6 g
- tumor inhibition rate (%) with physiological saline group as control ([2]; low dose 2 mg/Kg i.p.): 5.8%
- tumor inhibition rate (%) with solvent group as control ([2]; low dose 2 mg/Kg i.p.): 26.9%
- weight of tumor (x ± SD, g) ([2]; low dose 2 mg/Kg i.p.): 0.98 ± 0.47 g
- change of body weight (g) ([2]; low dose 5 mg/Kg i.p.): +12.5 g
- tumor inhibition rate (%) with physiological saline group as control ([2]; low dose 5 mg/Kg i.p.): 26.0%
- tumor inhibition rate (%) with solvent group as control ([2]; low dose 5 mg/Kg i.p.): 42.5%
- weight of tumor (x ± SD, g) ([2]; low dose 5 mg/Kg i.p.): 0.77 ± 0.47 g
- change of body weight (g) ([2]; middle dose 10 mg/Kg i.p.): +10.6 g
- tumor inhibition rate (%) with physiological saline group as control ([2]; middle dose 10 mg/Kg i.p.): 38.5%
- tumor inhibition rate (%) with solvent group as control ([2]; middle dose 10 mg/Kg i.p.): 52.2%
- weight of tumor (x ± SD, g) ([2]; middle dose 10 mg/Kg i.p.): 0.64 ± 0.25 g
